Source: US20120244567A1, “HUMAN EMBRYONIC STEM CELLS FOR HIGH THROUGHOUT DRUG SCREENING” (BUCK INSTITUTE FOR RESEARCH ON AGING, priority 2009, published 2012)
Structures can show the parent of a compound that is named as a salt. Where two headings read alike, the source gives them in different places.

Tested on: NSCs
Procedure: RNAs isolated from NSCs and neurons with and without drug treatments were hybridized to Illumina HumanRef-8 BeadChip (Illumina, Inc., San Diego, Calif., performed by Microarray core facility at the Burnham Institute for Medical Research). The Illumina array data were normalized by the quantile method, and then transformed log 2 ratio values for a zero mean for expression values of each gene across all samples. The statistical and bioinformatics analyses were conducted by using R and the bioconductor package (www.bioconductor.org). The gene set enrichment analysis was conducted using the GSEA software (www.broad.mit.edu/gsea).

[1] = Amiloride sensitive Na channels, 4 hours of exposure
[2] = Amine transporters, 4 hours of exposure
[3] = Ca activated K channels, 4 hours of exposure
[4] = Calcium channels, 4 hours of exposure
[5] = Cl channels, 4 hours of exposure
[6] = Delayed rectifier K channels, 4 hours of exposure
[7] = H ion transporters, 4 hours of exposure
[8] = Rectifier K channels, 4 hours of exposure
[9] = Voltage gated Na channels, 4 hours of exposure

Structure (SMILES): CCCCc1oc2ccccc2c1C(=O)c1cc(I)c(OCCN(CC)CC)c(I)c1 [Amiodarone Hydrochloride]
- ERG expression, Treated NSC: 32.9
- ACCN1 gene expression, Treated NSC [1]: 16.5
- ACCN2 gene expression, Treated NSC [1]: 185.7
- ACCN3 gene expression, Treated NSC [1]: 11
- SLC1A2 gene expression, Treated NSC [2]: 15.7
- SLC1A3 gene expression, Treated NSC [2]: 552.1
- SLC6A3 gene expression, Treated NSC [2]: 21.2
- SLC6A9 gene expression, Treated NSC [2]: 329.2
- SLC6A12 gene expression, Treated NSC [2]: 9.6
- KCNMB1 gene expression, Treated NSC [3]: 62.9
- KCNN1 gene expression, Treated NSC [3]: 6.5
- KCNN2 gene expression, Treated NSC [3]: 15.8
- KCNN3 gene expression, Treated NSC [3]: 0.7
- CACNA1A gene expression, Treated NSC [4]: 2
- CACNA1C gene expression, Treated NSC [4]: 25.9
- CACNB2 gene expression, Treated NSC [4]: 7.8
- CACNG2 gene expression, Treated NSC [4]: 2.5
- CLCN2 gene expression, Treated NSC [5]: 41.6
- CLCN3 gene expression, Treated NSC [5]: 566.5
- CLCN6 gene expression, Treated NSC [5]: 349.8
- CLCN7 gene expression, Treated NSC [5]: 1305.5
- CLIC1 gene expression, Treated NSC [5]: 122.2
- KCNA5 gene expression, Treated NSC [6]: 24.2
- KCNB1 gene expression, Treated NSC [6]: 32.8
- KCNB2 gene expression, Treated NSC [6]: 25
- ATP5B gene expression, Treated NSC [7]: 7030.3
- ATP6V0A2 gene expression, Treated NSC [7]: 190.2
- ATP6V0D1 gene expression, Treated NSC [7]: 3355
- ATP6V1A gene expression, Treated NSC [7]: 1155.9
- ATP6V1B2 gene expression, Treated NSC [7]: 385.4
- SLC2A1 gene expression, Treated NSC [7]: 1274.8
- SLC2A11 gene expression, Treated NSC [7]: 22.8
- SLC35B1 gene expression, Treated NSC [7]: 1769.8
- expression of Fos, FosB and DDIT3 (NSCs, four hours after exposure): significantly up regulated
- KCNC4 gene expression, Treated NSC [8]: 4.5
- KCND2 gene expression, Treated NSC [8]: 2.3
- KCNF1 gene expression, Treated NSC [8]: 189.2
- KCNG1 gene expression, Treated NSC [8]: 150.4
- KCNJ4 gene expression, Treated NSC [8]: 15.9
- KCNJ6 gene expression, Treated NSC [8]: 317.3
- KCNJ11 gene expression, Treated NSC [8]: 13.5
- KCNQ3 gene expression, Treated NSC [8]: 3.4
- KCNQ2 gene expression, Treated NSC (Rectifier K channels, first line for this gene, 4 hours of exposure): 138.1
- KCNQ2 gene expression, Treated NSC (Rectifier K channels, second line for this gene, 4 hours of exposure): 919.6
- SCN1A gene expression, Treated NSC [9]: 20.5
- SCN3A gene expression, Treated NSC [9]: 5.7
- SCN9A gene expression, Treated NSC [9]: 1.9
- expression of KLF 10 (intrinsic mitochondrial apoptotic pathway) (differentiated cells, treated versus untreated cells): not altered
- AFF1 expression, Treated NSC (four hours after exposure): 50.8
- ARID3A expression, Treated NSC (four hours after exposure): 2200
- ASCL2 expression, Treated NSC (four hours after exposure): 36
- CREBL1 expression, Treated NSC (four hours after exposure): 32.2
- DDIT3 expression, Treated NSC (four hours after exposure): 2270
- DLX1 expression, Treated NSC (four hours after exposure): 1550
- DLX2 expression, Treated NSC (four hours after exposure): 54.3
- E2F2 expression, Treated NSC (four hours after exposure): 635
- E2F7 expression, Treated NSC (four hours after exposure): 711
- E2F8 expression, Treated NSC (four hours after exposure): 82.7
- EGR1 expression, Treated NSC (four hours after exposure): 3100
- EGR2 expression, Treated NSC (four hours after exposure): 155
- ELF4 expression, Treated NSC (four hours after exposure): 103
- ELF5 expression, Treated NSC (four hours after exposure): 30.8
- ELK3 expression, Treated NSC (four hours after exposure): 89.9
- ELK4 expression, Treated NSC (four hours after exposure): 39.3
- EN1 expression, Treated NSC (four hours after exposure): 48.7
- ETS1 expression, Treated NSC (four hours after exposure): 952
- ETV1 expression, Treated NSC (four hours after exposure): 34.4
- ETV4 expression, Treated NSC (four hours after exposure): 672
- FOS expression, Treated NSC (four hours after exposure): 1160
- FOSB expression, Treated NSC (four hours after exposure): 174
- FOXA2 expression, Treated NSC (four hours after exposure): 36.8
- FOXD1 expression, Treated NSC (four hours after exposure): 79.7
- FOXF2 expression, Treated NSC (four hours after exposure): 39.3
- FOXL2 expression, Treated NSC (four hours after exposure): 120
- FOXM1 expression, Treated NSC (four hours after exposure): 287
- GATA2 expression, Treated NSC (four hours after exposure): 46.2
- GLI2 expression, Treated NSC (four hours after exposure): 227
- HCLS1 expression, Treated NSC (four hours after exposure): 40
- HEY2 expression, Treated NSC (four hours after exposure): 37.9
- HIRA expression, Treated NSC (four hours after exposure): 31.5
- HMGB2 expression, Treated NSC (four hours after exposure): 2170
- HOXA2 expression, Treated NSC (four hours after exposure): 770
- HOXA13 expression, Treated NSC (four hours after exposure): 33.2
- HOXB1 expression, Treated NSC (four hours after exposure): 30.6
- HOXB2 expression, Treated NSC (four hours after exposure): 1100
- HOXB3 expression, Treated NSC (four hours after exposure): 186
- HOXB4 expression, Treated NSC (four hours after exposure): 198
- HOXB5 expression, Treated NSC (four hours after exposure): 49.9
- HOXD3 expression, Treated NSC (four hours after exposure): 70.2
- IRF1 expression, Treated NSC (four hours after exposure): 38.9
- KLF10 expression, Treated NSC (four hours after exposure): 38.1
- L3MBTL expression, Treated NSC (four hours after exposure): 27.5
- LHX8 expression, Treated NSC (four hours after exposure): 42.9
- MEF2C expression, Treated NSC (four hours after exposure): 33.1
- MEOX1 expression, Treated NSC (four hours after exposure): 178
- MSX2 expression, Treated NSC (four hours after exposure): 41.9
- MYEF2 expression, Treated NSC (four hours after exposure): 30.6
- NFATC3 expression, Treated NSC (four hours after exposure): 32.4
- NFATC4 expression, Treated NSC (four hours after exposure): 32.8
- NFKB2 expression, Treated NSC (four hours after exposure): 68
- NR1D2 expression, Treated NSC (four hours after exposure): 44.9
- NR2C2 expression, Treated NSC (four hours after exposure): 65.3
- NR4A2 expression, Treated NSC (four hours after exposure): 30.4
- NRK expression, Treated NSC (four hours after exposure): 43.8
- PAX8 expression, Treated NSC (four hours after exposure): 98.9
- PBX2 expression, Treated NSC (four hours after exposure): 70.8
- PRDM1 expression, Treated NSC (four hours after exposure): 94.7
- PRRX2 expression, Treated NSC (four hours after exposure): 67.5
- RELB expression, Treated NSC (four hours after exposure): 53.6
- RUNX1 expression, Treated NSC (four hours after exposure): 43.3
- SALL1 expression, Treated NSC (four hours after exposure): 80.9
- SIX4 expression, Treated NSC (four hours after exposure): 185
- STAT6 expression, Treated NSC (four hours after exposure): 55.8
- TAF5L expression, Treated NSC (four hours after exposure): 77.4
- TAF13 expression, Treated NSC (four hours after exposure): 35.2
- TBX2 expression, Treated NSC (four hours after exposure): 46.9
- TEAD3 expression, Treated NSC (four hours after exposure): 87
- TEAD4 expression, Treated NSC (four hours after exposure): 235
- TEF expression, Treated NSC (four hours after exposure): 32.4
- TGIF1 expression, Treated NSC (four hours after exposure): 117
- TP53 expression, Treated NSC (four hours after exposure): 267
- ZNF85 expression, Treated NSC (four hours after exposure): 93.8
- ZNF197 expression, Treated NSC (four hours after exposure): 32.8
- ZNF274 expression, Treated NSC (four hours after exposure): 37.8
- ZNF367 expression, Treated NSC (four hours after exposure): 30.9
- ZSCAN29 expression, Treated NSC (four hours after exposure): 47.6
